Data taken from article PMC5866846 (Archives of Toxicology, 2017).

Tests used:
CYP2C19 = CYP2C19 (Homo sapiens, UniProt P33261); assay: Inhibition of CYP2C19 activity in HLM; assay type: in vitro ADME; conditions: human, human liver microsomes, 200 nM to 10 µM, 10 min pre-incubation
CYP2A6 gene expression = CYP2A6 gene expression in upcyte hepatocytes (Fluidigm RT-PCR); assay type: cell-based, human; conditions: 5 µM, 72 h, both cell strains
From the text: (§1) Differences between induced and control samples were compared using Welch’s t-test (GraphPad Prism, version 5.04), when the fold-change was considered biologically relevant (1.5-fold increase or decrease in fold-changes) and corrected for multiple testing according to Bonferroni. […] An unpaired t-test assuming unequal variances was used for testing of differences in the expression patterns, when the fold-change was considered biologically relevant (1.5-fold increase or decrease in fold-changes) and corrected using Bonferroni adjustments.

CYP3A4 = CYP3A4 activity in upcyte hepatocytes after treatment (probe substrate cocktail); conditions: 5 µM, 72 h, parental and derived cell line
Procedure: (§2) Cells were cultivated in hepatocyte culture medium at 37 °C and 5 °% CO2 in a humidified incubator. Before starting experiments, cells were cultivated in hepatocyte culture medium containing 0.5% (v/v) DMSO (Preculture medium) for 5 days (density of 0.8 × 10^4 cells/cm^2) and were subcultivated in high-performance medium containing 0.1% (v/v) DMSO (Metabolism conditioning medium) for 3–5 days (density of 1.6 × 10^5 cells/cm^2, confluence). The medium was replaced every 2–3 days.
(§3) In HLM and supersome™ incubations the formation rate is given as nmol µg^−1 min^−1 and fmol pmol^−1 min^−1, respectively, and was calculated as the mean ± SD. […] The intrinsic Clearance (Clint) was given as Vmax/Km ratio. […] Activity of CYP enzymes in induction assays is given as the fold-change (mean ± SD) compared to the corresponding DMSO-treated control. […] Gene expression patterns of treated cells are given as fold-change compared to the corresponding DMSO-treated control samples, as described above. […] In induction and inhibition experiments corresponding EC50 and IC50 values were calculated by nonlinear regression. In all experiments a level of probability (p) ≤ 0.05 for statistical testing was considered significant.
(§4) As control 0.05 % DMSO was used. The basal CYP activity and induction of CYP activity compared to the DMSO control were measured via HPLC-ESI-MS/MS.

SLC10A1 gene expression = SLC10A1 gene expression in upcyte hepatocytes (Fluidigm RT-PCR); assay type: cell-based, human; conditions: 5 µM, 72 h, both cell strains
From the text: as §1

CYP2C8 [1] = molecular target: T1, CYP2C8 (Homo sapiens, UniProt P10632); assay: Inhibition of CYP2C8 activity in HLM; assay type: in vitro ADME; conditions: 200 nM to 10 µM, 10 min pre-incubation
T1 sequence (P10632 1-490): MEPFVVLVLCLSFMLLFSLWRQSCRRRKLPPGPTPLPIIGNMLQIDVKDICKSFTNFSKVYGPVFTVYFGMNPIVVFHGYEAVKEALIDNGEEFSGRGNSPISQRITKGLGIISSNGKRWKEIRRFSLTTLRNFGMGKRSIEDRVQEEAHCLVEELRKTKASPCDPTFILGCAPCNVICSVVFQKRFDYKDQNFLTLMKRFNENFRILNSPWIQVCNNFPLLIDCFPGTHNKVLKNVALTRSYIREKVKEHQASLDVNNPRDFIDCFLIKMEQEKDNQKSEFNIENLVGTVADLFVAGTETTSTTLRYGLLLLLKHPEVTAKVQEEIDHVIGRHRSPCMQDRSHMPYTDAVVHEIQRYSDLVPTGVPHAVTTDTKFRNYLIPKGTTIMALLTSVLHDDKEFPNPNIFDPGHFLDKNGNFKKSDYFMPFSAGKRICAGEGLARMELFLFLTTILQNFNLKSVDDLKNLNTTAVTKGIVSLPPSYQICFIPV

CYP3A4 gene expression = CYP3A4 gene expression in upcyte hepatocytes (Fluidigm RT-PCR); conditions: 5 µM, 72 h, both cell strains
From the text: Total RNA was isolated from cells using the Direct-zol™ RNA MiniPrep kit (Zymo Research Corp., Irvine, California). cDNA was synthesized using TaqMan Reverse Transcription Reagents (Life technologies, Applera GmbH, Darmstadt, Germany) and the expression of 25 genes representative of phase I and phase II drug metabolism and transport was quantified by Fluidigm’s BioMark HD high-throughput quantitative chip platform (Fluidigm Corporation, San Francisco, USA). For relative gene expression analysis, the delta-delta-Ct (ΔΔCt) method was used: the Ct values of the target mRNA were first normalized to those of the endogenous control glyceraldehyde-3-phosphate dehydrogenase (GAPDH) followed by dividing values of experimental samples by their corresponding DMSO-treated controls to calculate the x-fold changes of mRNA expression.
as §3, §4

[2] = test system: upcyte hepatocytes 653-03 2D6; assay: Tam metabolism in upcyte hepatocytes 653-03 2D6, metabolites in culture medium; assay type: in vitro ADME, human; conditions: cells incubated with 1 µM Tam up to 144 h
Procedure: The medium was replaced every 2–3 days. […].
The culture medium was collected after 24, 48, 72, 96 and 144 h followed by metabolite measurements using HPLC-ESI-MS/MS.
Protein was precipitated by the addition of ACN containing 1% of acetic acid and the corresponding deuterated internal standards to the same volume of the sample followed by centrifugation at 20.000 g for 15 min at RT. […] Analytes were separated on a Zorbax Eclipse Plus C18 column (1.8 µm, 100 × 2.1 mm, Agilent technologies) and detected on a 6460 triple quadrupole mass spectrometer (Agilent technologies) in positive ESI MRM mode. Glucuronides of estrogen-like metabolites were detected separately via MS/MS-measurements in negative ESI MRM mode.
[…]. […] […].

CYP2C9 = CYP2C9 (Homo sapiens, UniProt P11712); assay: Inhibition of CYP2C9 activity in HLM; assay type: in vitro ADME; conditions: human, human liver microsomes, 200 nM to 10 µM, 10 min pre-incubation
Sequence of CYP2C9 (P11712 whole entry): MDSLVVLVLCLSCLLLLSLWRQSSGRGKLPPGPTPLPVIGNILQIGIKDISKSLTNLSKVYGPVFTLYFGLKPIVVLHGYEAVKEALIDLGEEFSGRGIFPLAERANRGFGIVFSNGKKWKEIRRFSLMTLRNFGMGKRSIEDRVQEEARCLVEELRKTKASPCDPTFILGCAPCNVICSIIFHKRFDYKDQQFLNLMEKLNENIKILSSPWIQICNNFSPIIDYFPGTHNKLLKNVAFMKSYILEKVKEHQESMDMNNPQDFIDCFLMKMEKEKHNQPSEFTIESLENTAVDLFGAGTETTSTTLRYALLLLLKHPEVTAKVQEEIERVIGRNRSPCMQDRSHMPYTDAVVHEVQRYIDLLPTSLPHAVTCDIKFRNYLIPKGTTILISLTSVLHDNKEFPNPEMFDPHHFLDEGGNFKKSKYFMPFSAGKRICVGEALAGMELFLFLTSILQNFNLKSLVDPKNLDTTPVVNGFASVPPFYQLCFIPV

CYP2C8 [3] = molecular target: T1, CYP2C8; assay: CYP2C8 activity in upcyte hepatocytes after treatment (probe substrate cocktail); assay type: cell-based; parameters: host or cells: upcyte hepatocytes 653-03 and 653-03 #138 (653-03 2D6); conditions: human, upcyte hepatocytes 653-03 and 653-03 2D6, probe amodiaquine 5 µM, 5 µM, both cell lines
Procedure: as §2, §3, §4

Sequence of CYP2C19 (P33261 whole entry): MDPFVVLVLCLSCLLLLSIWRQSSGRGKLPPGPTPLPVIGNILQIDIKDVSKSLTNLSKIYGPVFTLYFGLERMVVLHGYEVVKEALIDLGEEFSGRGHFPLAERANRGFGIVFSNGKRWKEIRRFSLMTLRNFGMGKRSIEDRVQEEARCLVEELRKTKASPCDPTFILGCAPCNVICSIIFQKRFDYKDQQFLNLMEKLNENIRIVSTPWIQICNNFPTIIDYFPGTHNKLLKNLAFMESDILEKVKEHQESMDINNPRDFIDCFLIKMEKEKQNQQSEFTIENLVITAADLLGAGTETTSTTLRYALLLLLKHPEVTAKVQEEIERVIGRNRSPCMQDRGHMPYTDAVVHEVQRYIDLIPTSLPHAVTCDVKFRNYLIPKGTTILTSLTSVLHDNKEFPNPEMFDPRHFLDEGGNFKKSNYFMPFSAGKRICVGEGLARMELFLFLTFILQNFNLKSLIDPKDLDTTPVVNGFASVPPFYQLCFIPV

- IC50 at 15 min (CYP2C19): > 10 µM
- CYP2A6 gene expression, downregulation (CYP2A6 gene expression): up to twofold
- induction of CYP3A4 activity compared to DMSO control (CYP3A4): up to 2.1 fold
- IC50 (CYP2C8 [1]): > 10 µM
- IC50 of CYP2C8 activity (CYP2C8 [1]): only minor inhibition
- CYP3A4 gene expression, induction vs DMSO control (CYP3A4 gene expression): up to 5.6 fold
- concentration in the supernatant of 653-03 2D6 cells relative to parental cells [2]: up to 20 times
- IC50 at 15 min (CYP2C9): > 10 µM
- inhibition at 72 h, 5 µM (CYP2C8 [3]): ≤ 90%
SMILES: CC/C(=C(\c1ccc(O)cc1)c1ccc(OCCN(C)C)cc1)c1ccccc1 [4OH-Tam, (Z)-4-Hydroxytamoxifen]
- SLC10A1 gene expression, downregulation (fold lower) (SLC10A1 gene expression): up to twofold
